{
  "source": "paper PMC7269146",
  "about": "“Jingzhaotoxin-X, a gating modifier of Kv4.2 and Kv4.3 potassium channels purified from the venom of the Chinese tarantula Chilobrachys jingzhao” (The Journal of Venomous Animals and Toxins Including …, 2020)",
  "biological_target": "T1, Kv4.3 (Rattus norvegicus, UniProt Q62897)",
  "T1 construct": "expressed in transfected cells; host or cells: HEK293t",
  "T1 sequence (Q62897 1-655)": "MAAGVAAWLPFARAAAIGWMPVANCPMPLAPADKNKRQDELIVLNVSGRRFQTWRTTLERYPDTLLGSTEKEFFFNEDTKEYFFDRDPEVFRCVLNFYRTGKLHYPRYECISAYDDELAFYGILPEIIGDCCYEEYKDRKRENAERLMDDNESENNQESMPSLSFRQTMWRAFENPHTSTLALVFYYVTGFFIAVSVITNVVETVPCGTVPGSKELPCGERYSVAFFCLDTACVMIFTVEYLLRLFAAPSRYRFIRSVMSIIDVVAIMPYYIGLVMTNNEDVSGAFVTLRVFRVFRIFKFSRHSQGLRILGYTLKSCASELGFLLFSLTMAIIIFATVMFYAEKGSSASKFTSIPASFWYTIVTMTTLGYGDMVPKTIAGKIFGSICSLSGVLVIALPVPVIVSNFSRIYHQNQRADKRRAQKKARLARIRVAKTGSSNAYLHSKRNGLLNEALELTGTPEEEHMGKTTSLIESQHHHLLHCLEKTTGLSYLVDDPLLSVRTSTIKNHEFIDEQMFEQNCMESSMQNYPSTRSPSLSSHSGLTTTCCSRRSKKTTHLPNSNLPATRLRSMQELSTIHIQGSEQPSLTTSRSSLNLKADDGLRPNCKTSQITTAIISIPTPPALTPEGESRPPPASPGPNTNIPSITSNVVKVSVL",
  "experiment": "microelectrode voltage-clamp, Xenopus laevis oocytes, Kv4.3",
  "format": "cell-based",
  "conditions": "+20 mV from -90 mV, n = 5, read-out: inhibition of Kv4.3 current",
  "excerpt": "Rat cDNA genes encoding Kv4.2 (Accession: NM_031730.2) and Kv4.3 (Accession: AB003587.1) were subcloned to vector pcDNA3.1. In addition, human cDNA genes encoding Nav1.7 (Accession: DQ857292.1) and Nav1.5 (Accession: AB158469.2) were subcloned to vectors pcDNA3.1-mod and pcDNA3.1, separately. Then, Kv4.2, Kv4.3, Nav1.5 and Nav1.7 constructs were transiently transfected into the human embryonic kidney 293t (HEK293t) cells using lipofectamine 2000 (Invitrogen, USA) in accordance with manufacturer protocols. Thereafter, HEK293 cells were inoculated within Dulbecco’s modified Eagle’s medium (DMEM) containing 10% fetal bovine serum (FBS) at 5% CO2 and 37°C. The Kv4.3 channel and the Kv4.2 counterpart were then transfected in the absence of β subunit. Subsequently, cells were incubated with a DNA-lipofectamine mixture (one reporter plasmid for green fluorescence protein and channel constructs) for 4-6 h, and were washed with the fresh medium.\nBriefly, plasmids were linearized, and transcription was carried out according to the standardized protocol. Afterwards, the capped cRNAs that encoded the related ion channels were prepared. […]",
  "note": "Where a SMILES comes first, the peptide text is derived from it. Bridges are numbered along the chain shown (N, C = ends).",
  "data": [
    {"smiles": "CC(C)C[C@@H]1NC(=O)[C@H](CCCCN)NC(=O)[C@H](Cc2ccc(O)cc2)NC(=O)[C@@H]2CSSC[C@@H]3NC(=O)[C@H](Cc4ccc(O)cc4)NC(=O)[C@H](Cc4ccccc4)NC(=O)CNC(=O)[C@H](C)NC(=O)[C@H](CSSC[C@H](NC(=O)[C@@H](N)CC(C)C)C(=O)N[C@@H](CO)C(=O)N[C@@H](CCCNC(=N)N)C(=O)N[C@@H](CCC(=O)O)C(=O)NCC(=O)N[C@@H](CCC(=O)O)C(=O)N[C@@H](Cc4ccccc4)C(=O)N2)NC(=O)[C@H](CSSC[C@@H](C(=O)N[C@@H](Cc2ccc(O)cc2)C(=O)N[C@@H](CCCNC(=N)N)C(=O)N[C@@H](CC(N)=O)C(=O)O)NC(=O)[C@H](Cc2c[nH]cn2)NC(=O)[C@H](CC(C)C)NC(=O)[C@H](C(C)C)NC(=O)[C@H](Cc2ccccc2)NC(=O)[C@H](C)NC(=O)[C@H](CCCCN)NC3=O)NC(=O)[C@H](CCCCN)NC(=O)[C@H](CCCNC(=N)N)NC1=O", "note": "[JZTX-X, Jingzhaotoxin-X] (H-LCSREGEFCYKLRKCCAGFYCKAFVLHCYRN-OH; disulfide 2-16, 9-21, 15-28; N-terminus assumed)", "values": [
      {"measurement": "inhibition at 1 µM", "result": "72.4 ± 4.8", "unit": "%"}
    ]}
  ]
}
